Data on four molecules can be found in patent US5998654A, “Retinoic acid receptor antagonist compounds and methods” (Ligand Pharmaceuticals Incorporated, priority 1997, dated 1999).

This assay deals with T1, RARγ (Homo sapiens, UniProt P13631).
T1 sequence (P13631 1-454): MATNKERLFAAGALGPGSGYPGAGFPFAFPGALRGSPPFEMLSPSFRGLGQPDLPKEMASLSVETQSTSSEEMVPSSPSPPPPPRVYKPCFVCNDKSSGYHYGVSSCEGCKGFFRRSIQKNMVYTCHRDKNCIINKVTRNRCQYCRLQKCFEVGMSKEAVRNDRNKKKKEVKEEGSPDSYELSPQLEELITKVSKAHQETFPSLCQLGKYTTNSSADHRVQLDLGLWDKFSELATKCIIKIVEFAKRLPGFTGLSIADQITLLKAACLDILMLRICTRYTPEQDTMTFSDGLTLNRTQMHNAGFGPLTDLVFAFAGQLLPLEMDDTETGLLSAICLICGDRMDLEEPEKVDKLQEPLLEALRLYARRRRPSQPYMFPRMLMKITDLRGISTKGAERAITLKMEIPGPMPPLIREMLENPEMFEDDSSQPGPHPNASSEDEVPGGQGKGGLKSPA
In words: RAR binding, RARγ. Conditions: Kd from IC50 by Cheng-Prussof equation. On the procedure:
Non-specific binding was defined as that binding remaining in the presence of 500 nM of the appropriate unlabelled compound. At the end of the incubation period, bound from free ligand were separated. The amount of bound tritiated retinoids was determined by liquid scintillation counting of an aliquot (700 μL) of the supernatant fluid or the hydroxylapatite pellet.
After correcting for non-specific binding, IC50 values were determined. […] The IC50 value was determined graphically from a log-logit plot of the data. The Kd values were determined by application of the Cheng-Prussof equation to the IC50 values, the labeled ligand concentration and the Kd of the labeled ligand.
`CCCCOc1c(C(C)(C)C)cc(/C(C)=C/C=C/C(C)=C/C(=O)O)cc1C(C)(C)C` [Compound 7, 2E, 4E, 6E-[7-(3,5-Di-t-butyl-4-n-butoxyphenyl)-3-methyl]-octa-2,4,6-trienoic acid]: the Kd (commonly a measure of binding affinity in units of concentration) is 17 nM.

For the molecule `CCCOc1c(C(C)(C)C)cc(/C(C)=C/C=C/C(C)=C/C(=O)O)cc1C(C)(C)C` [Compound 8, 2E, 4E, 6E-[7-(3,5-Di-t-butyl-4-n-propoxyphenyl)-3-methyl]-octa-2,4,6-trienoic acid], binding was characterised by a dissociation constant (Kd) of 4 nM. Compared with the last molecule, the Kd is about 4.2-fold lower.

`CCCCCOc1c(C(C)(C)C)cc(/C(C)=C/C=C/C(C)=C/C(=O)O)cc1C(C)(C)C` [Compound 9, 2E, 4E, 6E-[7-(3,5-Di-t-butyl-4-n-pentoxyphenyl)-3-methyl]-octa-2,4,6-trienoic acid] showed a Kd of 14 nM.

Molecule `C=C(c1ccccc1)c1cc(/C(C)=C/C=C/C(C)=C/C(=O)O)cc(C(C)(C)C)c1` [Compound 17, (2E,4E,6E)-7-[3-t-butyl-5-(1-phenyl-vinyl)-phenyl]-3-methyl-octa-2,4,6-trienoic acid] gave a Kd of 14 nM.
